Results as given in the supplement of paper PMC11061612.

Assays:
Assay in all cases: Bliss excess, mean over the matrix (fraction); higher = more synergy
[1] = test system: SW1116 (Colorectal Carcinoma)
Summary of the method: (§1)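 Cell lines grown in DMEM/F12 or RPMI with 10% FBS were plated in 1536-well plates and held 24 hours at 37°C, 5% CO2 before 72 hours of exposure to two-drug dose matrices, with DMSO typically at 0.2%. CellTiter-Glo 2.0 luminescence gave viability, which was converted to inhibition. Vehicle wells were set to 0 and blank wells to 1. Combination Emax is the second-highest inhibition in the matrix, and Bliss excess is the observed combination effect minus the expected EA + EB − EA·EB, where EA and EB are the single-agent effects.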

[2] = test system: EN (Endometrial Carcinoma)
Summary of the method: as §1

[3] = test system: HDLM-2 (Hodgkin's Lymphoma)
Summary of the method: as §1

[4] = test system: RPMI-6666 (Non-Cancerous)
Summary of the method: as §1

[5] = test system: HARA (Squamous Cell Lung Carcinoma)
Summary of the method: as §1

[6] = test system: OC-314 (Ovarian Carcinoma)
Summary of the method: as §1

[7] = test system: Hs-633T (Other Solid Carcinomas)
Summary of the method: as §1

NB14 (Neuroblastoma) = test system: NB14 (Neuroblastoma)
Summary of the method: as §1

NCI-H28 (Mesothelioma) = test system: NCI-H28 (Mesothelioma)
Summary of the method: as §1

[8] = test system: CAL-54 (Kidney Carcinoma)
Summary of the method: as §1

[9] = test system: MDA-MB-468 (Breast Carcinoma)
Summary of the method: as §1

[10] = test system: LoVo (Colorectal Carcinoma)
Summary of the method: as §1

[11] = test system: PCI-30 (Head and Neck Carcinoma)
Summary of the method: as §1

[12] = test system: SK-OV-3 (Ovarian Carcinoma)
Summary of the method: as §1

[13] = test system: RKO (Colorectal Carcinoma)
Summary of the method: as §1

NCI-H2461 (Mesothelioma) = test system: NCI-H2461 (Mesothelioma)
Summary of the method: as §1

[14] = test system: HO-1-u-1 (Oral Cavity Carcinoma)
Summary of the method: as §1

[15] = test system: SU-DHL-6 (B-Cell Non-Hodgkin's Lymphoma)
Summary of the method: as §1

SH-4 (Melanoma) = test system: SH-4 (Melanoma)
Summary of the method: as §1

[16] = test system: CAPAN-1 (Pancreatic Carcinoma)
Summary of the method: as §1

Compound | Bliss excess [1] | Bliss excess [2] | Bliss excess [3] | Bliss excess [4] | Bliss excess [5] | Bliss excess [6] | Bliss excess [7] | Bliss excess (NB14 (Neuroblastoma)) | Bliss excess (NCI-H28 (Mesothelioma)) | Bliss excess [8] | Bliss excess [9] | Bliss excess [10] | Bliss excess [11] | Bliss excess [12] | Bliss excess [13] | Bliss excess (NCI-H2461 (Mesothelioma)) | Bliss excess [14] | Bliss excess [15] | Bliss excess (SH-4 (Melanoma)) | Bliss excess [16]
O=C(c1cc(Cc2n[nH]c(=O)c3ccccc23)ccc1F)N1CCN(C(=O)C2CC2)CC1 [Olaparib] + Cc1c2c(nn1C)CSCc1cc(n(C)n1)CSc1cc(c3ccccc3c1)OCCCc1c(C(=O)O)n(C)c3c-2c(Cl)ccc13 [AZD5991] (first compound max 10 µM, 7x7, partner max 1 µM) | -0.0503 | -0.016 | -0.0194 | 0.017 | -0.0358 | -0.0142 | -0.0037 | -0.0183 | -0.0349 | -0.0272 | -0.0391 | -0.0591 | -0.048 | -0.06 | -0.0205 | -0.0502 | -0.0224 | 0.0065 | -0.0412 | -0.0392
O=C(c1cc(Cc2n[nH]c(=O)c3ccccc23)ccc1F)N1CCN(C(=O)C2CC2)CC1 [Olaparib] + CC1(C)CCC(CN2CCN(c3ccc(C(=O)NS(=O)(=O)c4ccc(NCC5CCOCC5)c([N+](=O)[O-])c4)c(Oc4cnc5[nH]ccc5c4)c3)CC2)=C(c2ccc(Cl)cc2)C1 [Venetoclax] (first compound max 10 µM, 7x7, partner max 1 µM) | -0.0429 | -0.0025 | 0.0921 | 0.134 | -0.0206 | -0.0124 | -0.0018 | 0.0052 | -0.0273 | -0.0496 | -0.0372 | -0.038 | -0.0425 | -0.0472 | -0.0151 | -0.0373 | -0.0275 | 0.104 | -0.0355 | -0.0564
N#Cc1cnc(Nc2cc(NC[C@H]3CNCCO3)c(C(F)(F)F)cn2)cn1 [SRA737] + C=CCn1c(=O)c2cnc(Nc3ccc(N4CCN(C)CC4)cc3)nc2n1-c1cccc(C(C)(C)O)n1 [AZD1775] (first compound max 10 µM, partner max 1 µM) | -0.0119 | 0.0422 | -0.0363 | -0.0021 | 0.0442 | 0.165 | 0.0888 | 0.0644 | 0.0829 | 0.0005 | 0.0705 | 0.0837 | 0.116 | -0.0357 | 0.0536 | 0.0428 | 0.0809 | 0.131 | 0.0688 | -0.0663
Cc1c2c(nn1C)CSCc1cc(n(C)n1)CSc1cc(c3ccccc3c1)OCCCc1c(C(=O)O)n(C)c3c-2c(Cl)ccc13 [AZD5991] + CC(=O)O[C@H]1C(=O)[C@@]2(C)[C@H]([C@H](OC(=O)c3ccccc3)[C@]3(O)C[C@H](OC(=O)[C@H](O)[C@@H](NC(=O)c4ccccc4)c4ccccc4)C(C)=C1C3(C)C)[C@]1(OC(C)=O)CO[C@@H]1C[C@@H]2O [Paclitaxel] (first compound max 1 µM, 7x7, partner max 3 µM) | -0.0379 | 0.149 | 0.0128 | -0.0139 | -0.003 | -0.0078 | 0.005 | -0.0212 | -0.0549 | -0.0639 | -0.051 | -0.122 | 0.115 | -0.028 | 0.0203 | -0.0417 | 0.214 | 0.0125 | -0.0331 | -0.0006
Cc1cc2ncnn2cc1Nc1ncc2c(n1)n(C1CCOCC1)c(=O)n2C [AZD7648] + COc1cc([C@@H]2c3cc4c(cc3[C@@H](O[C@@H]3O[C@@H]5CO[C@@H](C)O[C@H]5[C@H](O)[C@H]3O)[C@H]3COC(=O)[C@H]23)OCO4)cc(OC)c1O [Etoposide] (first compound max 10 µM, 7x7, partner max 10 µM) | -0.0028 | 0.0565 | -0.0015 | 0.0224 | 0.105 | 0.152 | 0.174 | 0.0704 | 0.0548 | 0.0605 | 0.0376 | 0.0689 | 0.0768 | -0.0497 | 0.135 | 0.0136 | 0.11 | 0.0914 | 0.0744 | -0.0034
N#Cc1cnc(Nc2cc(NC[C@H]3CNCCO3)c(C(F)(F)F)cn2)cn1 [SRA737] + CCc1c2c(nc3ccc(O)cc13)-c1cc3c(c(=O)n1C2)COC(=O)[C@]3(O)CC [SN-38] (first compound max 10 µM, 7x7, partner max 0.3 µM) | 0.0312 | -0.0706 | -0.0382 | -0.0707 | -0.0628 | -0.0056 | -0.0402 | -0.0148 | -0.104 | -0.0693 | -0.0136 | -0.0227 | -0.0079 | -0.0464 | -0.0398 | -0.0351 | 0.106 | 0.0295 | -0.111 | -0.0974
Cc1c2c(nn1C)CSCc1cc(n(C)n1)CSc1cc(c3ccccc3c1)OCCCc1c(C(=O)O)n(C)c3c-2c(Cl)ccc13 [AZD5991] + Nc1ccn([C@@H]2O[C@H](CO)[C@@H](O)C2(F)F)c(=O)n1 [Gemcitabine] (first compound max 1 µM, 7x7, partner max 0.3 µM) | -0.0213 | -0.0535 | 0.0014 | -0.0411 | -0.0107 | -0.0084 | -0.0611 | -0.0213 | -0.061 |  | -0.0097 | -0.0693 | -0.0531 | -0.0401 | -0.0368 | -0.0432 | 0.0217 | 0.0242 | -0.0246 | -0.0092
C[C@@H](Nc1cc(F)cc(F)c1)c1cc(C(=O)N(C)C)cc2c(=O)cc(N3CCOCC3)oc12 [AZD8186] + C1CN(CCC1(C(=O)N[C@@H](CCO)C2=CC=C(C=C2)Cl)N)C3=NC=NC4=C3C=CN4 [AZD5363] (first compound max 10 µM, 7x7, partner max 10 µM) | -0.0429 | 0.0157 | -0.0194 | -0.086 | -0.0301 | 0.0624 | -0.0205 | -0.0318 | -0.0165 | -0.0774 | -0.0305 | -0.0372 | -0.0443 | -0.064 | 0.0284 | -0.0449 | -0.073 | 0.0024 | -0.0317 | -0.0755
Cc1c2c(nn1C)CSCc1cc(n(C)n1)CSc1cc(c3ccccc3c1)OCCCc1c(C(=O)O)n(C)c3c-2c(Cl)ccc13 [AZD5991] + CS(=O)(=O)CCNCc1ccc(-c2ccc3ncnc(Nc4ccc(OCc5cccc(F)c5)c(Cl)c4)c3c2)o1 [Lapatinib] (first compound max 1 µM, 7x7, partner max 10 µM) | -0.0369 | -0.0129 | 0.0262 | -0.1 | 0.0632 | 0.0453 | -0.008 | 0.0335 | 0.0147 | 0.0368 | -0.0357 | -0.0052 | 0.0446 | 0.0591 | 0.0196 | -0.0273 | 0.0293 | 0.0085 | -0.01 | -0.0147
N#Cc1cnc(Nc2cc(NC[C@H]3CNCCO3)c(C(F)(F)F)cn2)cn1 [SRA737] + Nc1ccn([C@@H]2O[C@H](CO)[C@@H](O)C2(F)F)c(=O)n1 [Gemcitabine] (first compound max 10 µM, 7x7, partner max 0.3 µM) | 0.0727 | -0.0331 | 0.0526 | -0.0487 | -0.0013 | 0.108 | 0.0301 | 0.0218 | 0.0118 | -0.0458 | 0.0293 | -0.0137 | -0.0288 | 0.0128 | -0.0179 | -0.0309 | 0.0492 | 0.101 | 0.0138 | -0.0582
C[C@@H](Oc1cc(-c2cnn(C3CCNCC3)c2)cnc1N)c1c(Cl)ccc(F)c1Cl [Crizotinib] + CC1=C(C(=CC=C1)Cl)NC(=O)C2=CN=C(S2)NC3=CC(=NC(=N3)C)N4CCN(CC4)CCO [Dasatinib] (first compound max 10 µM, 7x7, partner max 2 µM) | 0.0159 | -0.0798 | -0.0228 | 0.0471 | 0.0526 | 0.032 | 0.0646 | -0.0123 | 0.0073 | -0.033 | 0.0256 | -0.121 | 0.0685 | 0.0301 | 0.0106 | -0.0186 | -0.0488 | -0.0146 | -0.0674 | -0.0481
C=CCn1c(=O)c2cnc(Nc3ccc(N4CCN(C)CC4)cc3)nc2n1-c1cccc(C(C)(C)O)n1 [AZD1775] + Nc1ccn([C@@H]2O[C@H](CO)[C@@H](O)C2(F)F)c(=O)n1 [Gemcitabine] (first compound max 1 µM, partner max 0.3 µM) | -0.0077 | -0.0552 | -0.0627 | -0.0197 | 0.0187 | 0.0576 | 0.0094 |  | -0.0576 | -0.0031 | 0.0073 | -0.0005 | 0.0252 | -0.0635 | -0.0367 | -0.0446 | -0.0446 | 0.0556 | -0.0092 | -0.0588
